Measurements: PubChem BioAssay AID330 (DTP/NCI, 2004)
Several values for one entry are separate records, joined by “and”; a condition that tells them apart may be missing. Equal values may be shown once. Toxic doses and inconclusive results are not listed.

Test system: P388 leukemia ip, CD2F1 mice, survival T/C
Test: NCI In Vivo Anticancer Drug Screen. Data for tumor model P388 Leukemia (intraperitoneal) in CD2F1 (CDF1) mice
Settings: endpoint: median survival time, higher = longer survival
In short: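 Mice carrying the transplanted tumor received test compound or vehicle. Survival was recorded in each group, and the value is the treated-group measurement divided by that of the vehicle-treated control group.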

[1] = dose: 6.25 mg/kg/injection, schedule: Q01DX009 (ip), vehicle: saline with Tween-80
[2] = dose: 50.0 mg/kg/injection, schedule: Q01DX009 (ip), vehicle: Klucel (hydroxypropylcellulose) (HPC)
[3] = dose: 100.0 mg/kg/injection, schedule: Q01DX009 (ip), vehicle: Klucel (hydroxypropylcellulose) (HPC)
[4] = dose: 200.0 mg/kg/injection, schedule: Q01DX009 (ip), vehicle: Klucel (hydroxypropylcellulose) (HPC)

Structure (SMILES): CC1C(=O)OC2CC[N+]3(C(=O)C(F)(F)F)CC4OC4(COC(=O)C(C)(O)C1(C)O)C23 (stereo unspecified)
- T/C (dose: 60.0 mg/kg/injection, schedule: Q01DX005 (ip), vehicle: suspension in saline): 104 % of control
- T/C (dose: 120.0 mg/kg/injection, schedule: Q01DX005 (ip), vehicle: suspension in saline): 93 % of control
- T/C (dose: 240.0 mg/kg/injection, schedule: Q01DX005 (ip), vehicle: suspension in saline): 92 % of control

Structure (SMILES): Cc1c(C(N)=O)c(-c2ccccc2)c(-c2ccccc2)n1Nc1ccccc1
- T/C (dose: 60.0 mg/kg/injection, schedule: Q01DX005 (ip), vehicle: Klucel (hydroxypropylcellulose) (HPC)): 95 % of control
- T/C (dose: 120.0 mg/kg/injection, schedule: Q01DX005 (ip), vehicle: Klucel (hydroxypropylcellulose) (HPC)): 96 % of control
- T/C (dose: 240.0 mg/kg/injection, schedule: Q01DX005 (ip), vehicle: Klucel (hydroxypropylcellulose) (HPC)): 92 % of control

Structure (SMILES): Cc1nc2cc(C(F)(F)F)cc(N)c2n1-c1ccccc1
- T/C (dose: 50.0 mg/kg/injection, schedule: Q01DX005 (ip), vehicle: saline with Tween-80): 113 % of control
- T/C (dose: 100.0 mg/kg/injection, schedule: Q01DX005 (ip), vehicle: saline with Tween-80): 106 % of control
- T/C (dose: 200.0 mg/kg/injection, schedule: Q01DX005 (ip), vehicle: saline with Tween-80): 111 % of control

Structure (SMILES): c1ccc2c(NCCCCCCNc3c4ccccc4nc4ccccc34)c3ccccc3nc2c1
- T/C (dose: 0.62 mg/kg/injection, schedule: Q## X009 (ip), vehicle: lactic acid): 124 % of control
- T/C (dose: 1.25 mg/kg/injection, schedule: Q01DX009 (ip), vehicle: Klucel (hydroxypropylcellulose) (HPC)): 119 % of control
- T/C (dose: 1.25 mg/kg/injection, schedule: Q01DX009 (ip), vehicle: water): 121 % of control
- T/C (dose: 1.25 mg/kg/injection, schedule: Q01DX009 (oral), vehicle: Klucel (hydroxypropylcellulose) (HPC)): 99 % of control
- T/C (dose: 2.16 mg/kg/injection, schedule: Q01DX009 (ip), vehicle: Klucel (hydroxypropylcellulose) (HPC)): 155 % of control
- T/C (dose: 2.16 mg/kg/injection, schedule: Q01DX009 (ip), vehicle: lactic acid): 156 % of control
- T/C (dose: 2.5 mg/kg/injection, schedule: Q01DX009 (oral), vehicle: Klucel (hydroxypropylcellulose) (HPC)): 106 % of control
- T/C (dose: 2.5 mg/kg/injection, schedule: Q## X009 (ip), vehicle: lactic acid): 152 % of control
- T/C (dose: 2.59 mg/kg/injection, schedule: Q01DX009 (ip), vehicle: lactic acid): 150 % of control
- T/C (dose: 3.6 mg/kg/injection, schedule: Q01DX009 (ip), vehicle: Klucel (hydroxypropylcellulose) (HPC)): 163 % of control
- T/C (dose: 3.6 mg/kg/injection, schedule: Q01DX009 (ip), vehicle: lactic acid): 154 % of control
- T/C (dose: 4.32 mg/kg/injection, schedule: Q01DX009 (ip), vehicle: lactic acid): 150 % of control
- T/C (dose: 5.0 mg/kg/injection, schedule: Q01DX009 (oral), vehicle: Klucel (hydroxypropylcellulose) (HPC)): 93 % of control
- T/C (dose: 5.4 mg/kg/injection, schedule: Q01DX009 (ip), vehicle: other): 156 % of control
- T/C (dose: 6.0 mg/kg/injection, schedule: Q01DX009 (ip), vehicle: Klucel (hydroxypropylcellulose) (HPC)): 180 % of control
- T/C (dose: 7.2 mg/kg/injection, schedule: Q01DX009 (ip), vehicle: Klucel (hydroxypropylcellulose) (HPC)): 157 % of control
- T/C (dose: 7.2 mg/kg/injection, schedule: Q01DX009 (ip), vehicle: lactic acid): 150 % of control
- T/C (dose: 7.2 mg/kg/injection, schedule: Q04DX003 (ip), vehicle: other): 118 % of control
- T/C (dose: 7.78 mg/kg/injection, schedule: Q01DX003 (ip), vehicle: water): 101 % of control
- T/C (dose: 7.78 mg/kg/injection, schedule: Q01DX009 (oral), vehicle: Klucel (hydroxypropylcellulose) (HPC)): 101 % of control
- T/C (dose: 7.78 mg/kg/injection, schedule: Q01DX009 (oral), vehicle: lactic acid): 111 % of control
- T/C (dose: 9.0 mg/kg/injection, schedule: Q01DX009 (ip), vehicle: other): 165 % of control
- T/C (dose: 10.0 mg/kg/injection, schedule: Q01DX009 (ip), vehicle: Klucel (hydroxypropylcellulose) (HPC)): 173 % of control
- T/C (dose: 10.0 mg/kg/injection, schedule: Q01DX009 (ip), vehicle: other): 150 % of control
- T/C (dose: 10.0 mg/kg/injection, schedule: Q01DX009 (ip), vehicle: water): 150 % of control
- T/C (dose: 10.0 mg/kg/injection, schedule: Q01DX009 (oral), vehicle: Klucel (hydroxypropylcellulose) (HPC)): 97 % of control
- T/C (dose: 12.0 mg/kg/injection, schedule: Q01DX009 (ip), vehicle: Klucel (hydroxypropylcellulose) (HPC)): 154 % of control
- T/C (dose: 12.0 mg/kg/injection, schedule: Q04DX003 (ip), vehicle: other): 95 % of control
- T/C (dose: 13.0 mg/kg/injection, schedule: Q01DX003 (ip), vehicle: water): 101 % of control
- T/C (dose: 13.0 mg/kg/injection, schedule: Q01DX009 (oral), vehicle: Klucel (hydroxypropylcellulose) (HPC)): 100 % of control
- T/C (dose: 13.0 mg/kg/injection, schedule: Q01DX009 (oral), vehicle: lactic acid): 104 % of control
- T/C (dose: 15.0 mg/kg/injection, schedule: Q01DX009 (ip), vehicle: other): 168 % of control
- T/C (dose: 20.0 mg/kg/injection, schedule: Q01DX009 (oral), vehicle: Klucel (hydroxypropylcellulose) (HPC)): 108 % of control
- T/C (dose: 21.6 mg/kg/injection, schedule: Q01DX009 (oral), vehicle: Klucel (hydroxypropylcellulose) (HPC)): 100 % of control
- T/C (dose: 21.6 mg/kg/injection, schedule: Q01DX009 (oral), vehicle: lactic acid): 96 % of control
- T/C (dose: 36.0 mg/kg/injection, schedule: Q01DX009 (oral), vehicle: Klucel (hydroxypropylcellulose) (HPC)): 104 % of control
- T/C (dose: 36.0 mg/kg/injection, schedule: Q01DX009 (oral), vehicle: lactic acid): 96 % of control
- T/C (dose: 40.0 mg/kg/injection, schedule: Q01DX009 (oral), vehicle: Klucel (hydroxypropylcellulose) (HPC)): 93 % of control
- T/C (dose: 60.0 mg/kg/injection, schedule: Q01DX009 (oral), vehicle: Klucel (hydroxypropylcellulose) (HPC)): 96 % of control
- T/C (dose: 60.0 mg/kg/injection, schedule: Q01DX009 (oral), vehicle: lactic acid): 93 % of control
- T/C (dose: 80.0 mg/kg/injection, schedule: Q01DX009 (oral), vehicle: Klucel (hydroxypropylcellulose) (HPC)): 97 % of control
- T/C (dose: 100.0 mg/kg/injection, schedule: Q01DX009 (oral), vehicle: Klucel (hydroxypropylcellulose) (HPC)): 95 % of control
- T/C (dose: 100.0 mg/kg/injection, schedule: Q01DX009 (oral), vehicle: lactic acid): 99 % of control
- T/C (dose: 167.0 mg/kg/injection, schedule: Q01DX009 (oral), vehicle: Klucel (hydroxypropylcellulose) (HPC)): 108 % of control
- T/C (dose: 167.0 mg/kg/injection, schedule: Q01DX009 (oral), vehicle: lactic acid): 103 % of control

Structure (SMILES): O=[N+]([O-])c1ccccc1-c1ccccc1N=Cc1ccccc1
- T/C [1]: 96 % of control
- T/C (dose: 12.5 mg/kg/injection, schedule: Q01DX009 (ip), vehicle: saline with Tween-80): 106 % of control
- T/C (dose: 25.0 mg/kg/injection, schedule: Q01DX009 (ip), vehicle: saline with Tween-80): 86 % of control

Structure (SMILES): N=c1ccn2c(n1)OC1C(OP(=O)(O)O)C(CO)OC12 (stereo unspecified)
- T/C (dose: 177.0 mg/kg/injection, schedule: Q04DX003 (ip), vehicle: saline with Tween-80): 154 % of control

Structure (SMILES): CN(C)c1ccc(/C=C/c2ccncc2)cc1
- T/C (dose: 1.56 mg/kg/injection, schedule: Q01DX009 (ip), vehicle: saline with Tween-80): 104 % of control and 106 % of control
- T/C (dose: 3.13 mg/kg/injection, schedule: Q01DX009 (ip), vehicle: saline with Tween-80): 104 % of control and 113 % of control
- T/C [1]: 102 % of control and 94 % of control

Structure (SMILES): COc1ccc(-c2cc(-c3ccccc3)nc(-c3cccc([N+](=O)[O-])c3)c2)cc1
- T/C [2]: 100 % of control
- T/C [3]: 124 % of control
- T/C [4]: 97 % of control

Structure (SMILES): CCOC(=O)c1c[nH]c2c(=O)c3cc(C)ccc3sc2c1=O
- T/C (dose: 50.0 mg/kg/injection, schedule: Q01DX001 (ip), vehicle: saline with Tween-80): 95 % of control
- T/C (dose: 100.0 mg/kg/injection, schedule: Q01DX001 (ip), vehicle: saline with Tween-80): 93 % of control
- T/C (dose: 200.0 mg/kg/injection, schedule: Q01DX001 (ip), vehicle: saline with Tween-80): 87 % of control

Structure (SMILES): Fc1cccc(-c2nn[nH]n2)c1
- T/C (dose: 100.0 mg/kg/injection, schedule: Q04DX002 (ip), vehicle: saline with Tween-80): 102 % of control
- T/C (dose: 200.0 mg/kg/injection, schedule: Q04DX002 (ip), vehicle: saline with Tween-80): 107 % of control
- T/C (dose: 400.0 mg/kg/injection, schedule: Q04DX002 (ip), vehicle: saline with Tween-80): 116 % of control

Structure (SMILES): CC(C)N(C(=O)c1cccc(C(=O)N(C(C)C)C(C)C)n1)C(C)C
- T/C (dose: 60.0 mg/kg/injection, schedule: Q01DX005 (ip), vehicle: saline with Tween-80): 101 % of control
- T/C (dose: 120.0 mg/kg/injection, schedule: Q01DX005 (ip), vehicle: saline with Tween-80): 95 % of control
- T/C (dose: 240.0 mg/kg/injection, schedule: Q01DX005 (ip), vehicle: saline with Tween-80): 95 % of control

Structure (SMILES): O=C1/C(=C/c2ccccc2[N+](=O)[O-])CCCc2ccccc21
- T/C [2]: 94 % of control
- T/C [3]: 103 % of control
- T/C [4]: 105 % of control
